The record followed here is US9062071B2, “Substituted piperidines as HDM2 inhibitors” (Merck Sharp & Dohme Corp, priority 2011, dated 2015).

The target in this test is HDM2 protein (Homo sapiens, UniProt Q00987). The test is described as follows: fluorescence polarization screening assay (FP IC50). In kind it is binding. The note with it: class symbols. As to the method:
The compounds were evaluated to determine activity at the HDM2 protein by known methods such as the fluorescence polarization screening assay that measures the inhibitory concentration that achieves 50% of maximal activity (FP IC50) and the dissociation constant for inhibitor binding (FP Ki). [Zhang et al., J. Analytical Biochemistry 331: 138-146 (2004)].

Sequence of HDM2 protein (Q00987 whole entry): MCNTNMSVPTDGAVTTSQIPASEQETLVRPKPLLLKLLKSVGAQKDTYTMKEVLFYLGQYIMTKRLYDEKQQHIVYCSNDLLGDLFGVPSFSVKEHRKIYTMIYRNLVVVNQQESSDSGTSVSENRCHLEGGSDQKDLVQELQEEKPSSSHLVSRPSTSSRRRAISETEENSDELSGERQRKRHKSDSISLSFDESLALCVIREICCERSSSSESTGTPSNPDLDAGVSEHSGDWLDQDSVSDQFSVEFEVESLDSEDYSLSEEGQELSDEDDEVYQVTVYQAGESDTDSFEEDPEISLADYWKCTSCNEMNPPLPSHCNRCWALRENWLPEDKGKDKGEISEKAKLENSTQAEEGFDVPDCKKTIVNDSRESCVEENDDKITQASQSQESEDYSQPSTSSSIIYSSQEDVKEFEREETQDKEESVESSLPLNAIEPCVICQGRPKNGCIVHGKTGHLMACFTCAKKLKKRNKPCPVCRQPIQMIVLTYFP

Compound `CCC[C@H]1N(C(=O)c2ncccc2C(F)(F)F)CCC[C@@]1(Oc1csc(C(F)(F)F)c1)C(=O)N1Cc2ccc(Cl)cc2C[C@@H]1CCC(=O)N(C)C` [Compound A135, 3-[(3S)-6-chloro-2-{[(2R,3S)-2-propyl-1-{[3-(trifluoromethyl)pyridin-2-yl]carbonyl}-3-{[5-(trifluoromethyl)thiophen-3-yl]oxy}piperidin-3-yl]carbonyl}-1,2,3,4-tetrahydroisoquinolin-3-yl]-N,N-dimethylpropanamide] returned an IC50 of 0.001 to 0.1 µM.
Compound `CCC[C@H]1N(C(=O)c2ncccc2C(F)(F)F)CCC[C@@]1(Oc1csc(C(F)(F)F)c1)C(=O)N1Cc2ccc(Cl)cc2C[C@@H]1CCC(=O)NC` [Compound A136, 3-[(3S)-6-chloro-2-{[(2R,3S)-2-propyl-1-{[3-(trifluoromethyl)pyridin-2-yl]carbonyl}-3-{[5-(trifluoromethyl)thiophen-3-yl]oxy}piperidin-3-yl]carbonyl}-1,2,3,4-tetrahydroisoquinolin-3-yl]-N-methylpropanamide] showed a 50% inhibitory concentration (IC50) of 0.001 to 0.1 µM.
`CCC[C@H]1N(C(=O)c2ncccc2C(F)(F)F)CCC[C@@]1(Oc1csc(C(F)(F)F)c1)C(=O)N1Cc2ccc(Cl)cc2C[C@@H]1C[C@H](C)C(=O)O` [Compound A137, (2S)-3-[(3S)-6-chloro-2-{[(2R,3S)-2-propyl-1-{[3-(trifluoromethyl)pyridin-2-yl]carbonyl}-3-{[5-(trifluoromethyl)thiophen-3-yl]oxy}piperidin-3-yl]carbonyl}-1,2,3,4-tetrahydroisoquinolin-3-yl]-2-methylpropanoic acid]: the IC50 lay in the range of 0.001 to 0.1 µM.
For `CCC[C@H]1N(C(=O)c2ncccc2C(F)(F)F)CCC[C@@]1(Oc1csc(C(F)(F)F)c1)C(=O)N1CCc2ccc(F)cc2C1` [Compound A138, 7-fluoro-2-{[(2R,3S)-2-propyl-1-{[3-(trifluoromethyl)pyridin-2-yl]carbonyl}-3-{[5-(trifluoromethyl)thiophen-3-yl]oxy}piperidin-3-yl]carbonyl}-1,2,3,4-tetrahydroisoquinoline], the IC50 lay in the range of 0.101 to 20 µM.
`CCC[C@H]1N(C(=O)c2ncccc2C(F)(F)F)CCC[C@@]1(Oc1csc(C(F)(F)F)c1)C(=O)N1CCc2ccc(Cl)cc2C1` [Compound A139, 7-chloro-2-{[(2R,3S)-2-propyl-1-{[3-(trifluoromethyl)pyridin-2-yl]carbonyl}-3-{[5-(trifluoromethyl)thiophen-3-yl]oxy}piperidin-3-yl]carbonyl}-1,2,3,4-tetrahydroisoquinoline] yielded an IC50 of 0.101 to 20 µM.
`CCC[C@H]1N(C(=O)c2ncccc2C(F)(F)F)CCC[C@@]1(Oc1csc(C(F)(F)F)c1)C(=O)N1CCc2ccc(OC)cc2C1` [Compound A140, 7-methoxy-2-{[(2R,3S)-2-propyl-1-{[3-(trifluoromethyl)pyridin-2-yl]carbonyl}-3-{[5-(trifluoromethyl)thiophen-3-yl]oxy}piperidin-3-yl]carbonyl}-1,2,3,4-tetrahydroisoquinoline] had an IC50 of 0.101 to 20 µM.
As for `CCC[C@H]1N(C(=O)c2ncccc2C(F)(F)F)CCC[C@@]1(Oc1csc(C(F)(F)F)c1)C(=O)N1Cc2ccc(Cl)cc2C[C@@H]1CCCF` [Compound A141, (3S)-6-chloro-3-(3-fluoropropyl)-2-{[(2R,3S)-2-propyl-1-{[3-(trifluoromethyl)pyridin-2-yl]carbonyl}-3-{[5-(trifluoromethyl)thiophen-3-yl]oxy}piperidin-3-yl]carbonyl}-1,2,3,4-tetrahydroisoquinoline], the half-maximal inhibitory concentration (IC50) lay in the range of 0.101 to 20 µM.
`CCC[C@H]1N(C(=O)c2ncccc2C(F)(F)F)CCC[C@@]1(Oc1csc(C(F)(F)F)c1)C(=O)N1CCc2ccc(Br)cc2C1` [Compound A142, 7-bromo-2-{[(2R,3S)-2-propyl-1-{[3-(trifluoromethyl)pyridin-2-yl]carbonyl}-3-{[5-(trifluoromethyl)thiophen-3-yl]oxy}piperidin-3-yl]carbonyl}-1,2,3,4-tetrahydroisoquinoline] came in with an IC50 of 0.101 to 20 µM.
`CCC[C@H]1N(C(=O)c2ncccc2C(F)(F)F)CCC[C@@]1(Oc1csc(C(F)(F)F)c1)C(=O)N1Cc2ccc(Cl)cc2C[C@H]1CCC(=O)O` [Compound A143, 3-[(3R)-6-chloro-2-{[(2R,3S)-2-propyl-1-{[3-(trifluoromethyl)pyridin-2-yl]carbonyl}-3-{[5-(trifluoromethyl)thiophen-3-yl]oxy}piperidin-3-yl]carbonyl}-1,2,3,4-tetrahydroisoquinolin-3-yl]propanoic acid] returned an IC50 of 0.001 to 0.1 µM.
Then `CCC[C@H]1N(C(=O)c2ncccc2C(F)(F)F)CCC[C@@]1(Oc1csc(C(F)(F)F)c1)C(=O)N1Cc2ccc(F)cc2C[C@@H]1CC(=O)O` [Compound A144, [(3R)-6-fluoro-2-{[(2R,3S)-2-propyl-1-{[3-(trifluoromethyl)pyridin-2-yl]carbonyl}-3-{[5-(trifluoromethyl)thiophen-3-yl]oxy}piperidin-3-yl]carbonyl}-1,2,3,4-tetrahydroisoquinolin-3-yl]acetic acid], with 0.001 to 0.1 µM; and `CCC[C@H]1N(C(=O)c2ncccc2C(F)(F)F)CCC[C@@]1(Oc1csc(C(F)(F)F)c1)C(=O)N1Cc2ccc(Cl)cc2C[C@@H]1CCC(=O)NO` [Compound A145, 3-[(3S)-6-chloro-2-{[(2R,3S)-2-propyl-1-{[3-(trifluoromethyl)pyridin-2-yl]carbonyl}-3-{[5-(trifluoromethyl)thiophen-3-yl]oxy}piperidin-3-yl]carbonyl}-1,2,3,4-tetrahydroisoquinolin-3-yl]-N-hydroxypropanamide], with 0.001 to 0.1 µM.
As for `CCC[C@H]1N(C(=O)c2ncccc2C(F)(F)F)CCC[C@@]1(Oc1csc(C(F)(F)F)c1)C(=O)N1Cc2ccc(F)cc2C[C@@H]1CCCC(=O)O` [Compound A146, 4-[(3S)-6-fluoro-2-{[(2R,3S)-2-propyl-1-{[3-(trifluoromethyl)pyridin-2-yl]carbonyl}-3-{[5-(trifluoromethyl)thiophen-3-yl]oxy}piperidin-3-yl]carbonyl}-1,2,3,4-tetrahydroisoquinolin-3-yl]butanoic acid], the figure is 0.001 to 0.1 µM.
The compound `CCC[C@H]1N(C(=O)c2ncccc2C(F)(F)F)CCC[C@@]1(Oc1csc(C(F)(F)F)c1)C(=O)N1Cc2cc(F)ccc2C[C@H]1CCC(=O)O` [Compound A147, 3-[(3R)-7-fluoro-2-{[(2R,3S)-2-propyl-1-{[3-(trifluoromethyl)pyridin-2-yl]carbonyl}-3-{[5-(trifluoromethyl)thiophen-3-yl]oxy}piperidin-3-yl]carbonyl}-1,2,3,4-tetrahydroisoquinolin-3-yl]propanoic acid] registered a half-maximal inhibitory concentration (IC50) of 0.001 to 0.1 µM.
As for `CCC[C@H]1N(C(=O)c2ncccc2C(F)(F)F)CCC[C@@]1(Oc1csc(C(F)(F)F)c1)C(=O)N1Cc2ccc(Cl)cc2C[C@@H]1CCC(=O)NS(C)(=O)=O` [Compound A148, 3-[(3S)-6-chloro-2-{[(2R,3S)-2-propyl-1-{[3-(trifluoromethyl)pyridin-2-yl]carbonyl}-3-{[5-(trifluoromethyl)thiophen-3-yl]oxy}piperidin-3-yl]carbonyl}-1,2,3,4-tetrahydroisoquinolin-3-yl]-N-(methylsulfonyl) propanamide], the IC50 fell in the range of 0.001 to 0.1 µM.
The compound `CCC[C@H]1N(C(=O)c2ncccc2C(F)(F)F)CCC[C@@]1(Oc1csc(C(F)(F)F)c1)C(=O)N1Cc2ccc(F)cc2C[C@@H]1C(=O)N1CCC(O)CC1` [Compound A149, 1-{[(3R)-6-fluoro-2-{[(2R,3S)-2-propyl-1-{[3-(trifluoromethyl)pyridin-2-yl]carbonyl}-3-{[5-(trifluoromethyl)thiophen-3-yl]oxy}piperidin-3-yl]carbonyl}-1,2,3,4-tetrahydroisoquinolin-3-yl]carbonyl}piperidin-4-ol] gave a half-maximal inhibitory concentration (IC50) of 0.001 to 0.1 µM.
Compound `CCC[C@H]1N(C(=O)c2ncccc2C(F)(F)F)CCC[C@@]1(Oc1csc(C(F)(F)F)c1)C(=O)N1Cc2ccc(F)cc2C[C@@H]1C(=O)NCCO` [Compound A150, (3R)-6-fluoro-N-(2-hydroxyethyl)-2-{[(2R,3S)-2-propyl-1-{[3-(trifluoromethyl)pyridin-2-yl]carbonyl}-3-{[5-(trifluoromethyl)thiophen-3-yl]oxy}piperidin-3-yl]carbonyl}-1,2,3,4-tetrahydroisoquinoline-3-carboxamide] returned a concentration for half-maximal inhibition (IC50) of 0.001 to 0.1 µM.
Then `CCC[C@H]1N(C(=O)c2ncccc2C(F)(F)F)CCC[C@@]1(Oc1csc(C(F)(F)F)c1)C(=O)N1Cc2ccc(Cl)cc2C[C@@H]1CN(C)C(=O)[C@@H](C)OC` [Compound A151, (2R)-N-{[(3R)-6-chloro-2-{[(2R,3S)-2-propyl-1-{[3-(trifluoromethyl)pyridin-2-yl]carbonyl}-3-{[5-(trifluoromethyl)thiophen-3-yl]oxy}piperidin-3-yl]carbonyl}-1,2,3,4-tetrahydroisoquinolin-3-yl]methyl}-2-methoxy-N-methylpropanamide], with 0.001 to 0.1 µM; and `CCC[C@H]1N(C(=O)c2ncccc2C(F)(F)F)CCC[C@@]1(Oc1csc(C(F)(F)F)c1)C(=O)N1Cc2ccc(Cl)cc2C[C@@H]1CN(C)C(=O)CC` [Compound A152, N-{[(3R)-6-chloro-2-{[(2R,3S)-2-propyl-1-{[3-(trifluoromethyl)pyridin-2-yl]carbonyl}-3-{[5-(trifluoromethyl)thiophen-3-yl]oxy}piperidin-3-yl]carbonyl}-1,2,3,4-tetrahydroisoquinolin-3-yl]methyl}-N-methylpropanamide], with 0.001 to 0.1 µM; and `CCC[C@H]1N(C(=O)c2ncccc2C(F)(F)F)CCC[C@@]1(Oc1csc(C(F)(F)F)c1)C(=O)N1Cc2ccc(F)cc2C[C@H]1C[C@H](C(=O)O)C(C)C` [Compound A153, (2S)-2-{[(3R)-6-fluoro-2-{[(2R,3S)-2-propyl-1-{[3-(trifluoromethyl)pyridin-2-yl]carbonyl}-3-{[5-(trifluoromethyl)thiophen-3-yl]oxy}piperidin-3-yl]carbonyl}-1,2,3,4-tetrahydroisoquinolin-3-yl]methyl}-3-methylbutanoic acid], with 0.001 to 0.1 µM.

As usually defined, the IC50 is the concentration needed to halve the response being measured. A higher IC50 goes with weaker potency in that assay.
